For the test, the system named is AMPA receptor. To be noted: Table 3; primary culture of rat embryo cerebral cortex nerve cells, 2 μM AMPA, 1 μM MK-801.
Protocol: Cerebral cortex was cut out from the brain of rat of gestational 18 days and treated with trypsin and DNase to disperse the cells. The cells were flown by MEM containing 10% of serum, sown in a culture bottle and astrocytes were proliferated. The astrocytes were re-dispersed by trypsin and sown in a 96-well plate. After incubation for one week, it was confirmed that the astrocytes covered all over the bottom and then the nerve cells of cerebral cortex which was dispersed by the above method were sown thereupon. After incubation for 24 hours, the medium was changed, the incubation was carried out for one week and, after that, the medium was changed to that containing 1 μM of MK-801. Nerve cells which were incubated for not shorter than 8 to 10 days were used.
Calcium influx into the cells was measured using Fura2-AM which was a calcium-sensitive fluorescent dye. It was treated in a medium containing Fura2-AM for 1 hour, incorporated into the cells, exchanged to a Tyrode solution containing 1 μM MK-801 and stimulation was carried out using 2 μM AMPA. Change in the amount of calcium flown into the cells were measured as the change in the fluorescent intensity at the exciting wave length of 340/380 nm.
As a reminder, the IC50 is the midpoint of a concentration-inhibition curve. Higher therefore signals a need for much substance. As to `N#Cc1ccccc1-c1cc(-c2ccccn2)cn(CC2CCCC2)c1=O` [Example 317, 3-(2-Cyanophenyl)-1-cyclopentylmethyl-5-(2-pyridyl)-1,2-dihydropyridin-2-one], the IC50 is 600 nM. That is a sub-micromolar value. The figure for `CC(C)(C)OC(=O)N1CCC(Cn2cc(-c3ccccn3)cc(-c3ccccc3C#N)c2=O)CC1` [Example 318, 1-[1-(tert-butoxycarbonyl)piperidin-4-yl]methyl-3-(2-cyanophenyl)-5-(2-pyridyl)-1,2-dihydropyridin-2-one] is 3100 nM; for `N#Cc1ccccc1-c1cc(-c2ccccn2)cn(CC2CCN(C(=O)OCc3ccccc3)CC2)c1=O` [Example 319, 1-[1-(Benzyloxycarbonyl)piperidin-4-yl]methyl-3-(2-cyanophenyl)-5-(2-pyridyl)-1,2-dihydropyridin-2-one] it is 2000 nM. The figure for `O=c1c(-n2cccc2)cc(-c2ccccn2)cn1-c1ccccc1` [Example 320, 3-(Pyrrol-1-yl)-5-(2-pyridyl)-1-phenyl-1,2-dihydropyridin-2-one] is 2300 nM; for `N#Cc1ccccc1Nc1cc(-c2ccccn2)cn(-c2ccccc2)c1=O` [Example 321, 3-(2-Cyanophenylamino)-5-(2-pyridyl)-1-phenyl-1,2-dihydropyridin-2-one] it is 4000 nM; for `O=c1c(-n2ccc3ccccc32)cc(-c2ccccn2)cn1-c1ccccc1` [Example 326, 3-(Indol-1-yl)-5-(2-pyridyl)-1-phenyl-1,2-dihydropyridin-2-one] it is 900 nM. With `Cc1ccc(-c2ccccc2)n1-c1cc(-c2ccccn2)cn(-c2ccccc2)c1=O` [Example 327, 3-(2-Methyl-5-phenylpyrrol-1-yl)-5-(2-pyridyl)-1-phenyl-1,2-dihydropyridin-2-one], inhibition was half-maximal at 8000 nM (IC50). Compared with the last molecule, the IC50 is about 8.9-fold higher.

In turn, `N#Cc1ccccc1-c1cc(-c2ccccn2)cn(-c2cccc(OC3CCNCC3)c2)c1=O` [Example 330, 3-(2-Cyanophenyl)-1-[3-(4-piperidyloxy)]phenyl-5-(2-pyridyl)-1,2-dihydropyridin-2-one] returned an IC50 of 400 nM. Next, `CC(=O)N1CCC(Oc2cccc(-n3cc(-c4ccccn4)cc(-c4ccccc4C#N)c3=O)c2)CC1` [Example 333, 1-[3-(N-acetylpiperidin-4-yl-oxy)phenyl]-3-(2-cyanophenyl)-5-(2-pyridyl)-1,2-dihydropyridin-2-one]: 300 nM; `N#Cc1ccccc1-c1cc(-c2ccccn2)cn(-c2cccc(OC3CCN(C(=O)c4ccccc4)CC3)c2)c1=O` [Example 334, 1-[3-(N-benzoylpiperidin-4-yl-oxy)phenyl]-3-(2-cyanophenyl)-5-(2-pyridyl)-1,2-dihydropyridin-2-one]: 600 nM; `N#Cc1ccccc1-c1cc(-c2ccccn2)cn(-c2cccc(OC3CCN(S(=O)(=O)c4ccccc4)CC3)c2)c1=O` [Example 337, 1-{3-[1-(Benzenesulfonyl)piperidin-4-yl-oxy]phenyl}-3-(2-cyanophenyl)-5-(2-pyridyl)-1,2-dihydropyridin-2-one]: 700 nM.

Regarding `CS(=O)(=O)N1CCC(Oc2cccc(-n3cc(-c4ccccn4)cc(-c4ccccc4C#N)c3=O)c2)CC1` [Example 338, 3-(2-Cyanophenyl)-1-{3-[1-(methanesulfonyl)piperidin-4-yl-oxy]phenyl}-5-(2-pyridyl)-1,2-dihydropyridin-2-one], the concentration for half-maximal inhibition (IC50) worked out at 400 nM. The figure for `CN1CCC(Oc2cccc(-n3cc(-c4ccccn4)cc(-c4ccccc4C#N)c3=O)c2)CC1` [Example 341, 1-[3-(N-methylpiperidin-4-yl-oxy)phenyl]-3-(2-cyanophenyl)-5-(2-pyridyl)-1,2-dihydropyridin-2-one] is 200 nM; for `O=C(NC1CCCCC1)c1cc(-c2ccccn2)cn(-c2ccccc2)c1=O` [Example 344, 3-Cyclohexylaminocarbonyl-5-(2-pyridyl)-1-phenyl-1,2-dihydropyridin-2-one] it is 4700 nM; for `O=C(NC12CC3CC(CC(C3)C1)C2)c1cc(-c2ccccn2)cn(-c2ccccc2)c1=O` [Example 346, 3-(1-Adamantylaminocarbonyl)-5-(2-pyridyl)-1-phenyl-1,2-dihydropyridin-2-one] it is 3700 nM. The figure for `Cc1ccc2[nH]c(-c3cc(-c4ccccc4C#N)c(=O)n(-c4ccccc4)c3)nc2c1` [Example 351, 3-(2-Cyanophenyl)-5-(5-methyl-1H-benzimidazol-2-yl)-1-phenyl-1,2-dihydropyridin-2-one] is 3300 nM. As for `Cc1cccc2[nH]c(-c3cc(-c4ccccc4C#N)c(=O)n(-c4ccccc4)c3)nc12` [Example 352, 3-(2-Cyanophenyl)-5-(4-methyl-1H-benzimidazol-2-yl)-1-phenyl-1,2-dihydropyridin-2-one], the IC50 came out at 1600 nM. The figure for `O=c1c(-c2nc3cc(Cl)c(Cl)cc3[nH]2)cc(-c2ccccn2)cn1-c1ccccc1` [Example 354, 3-(5.6-Dichloro-1H-benzimidazol-2-yl)-5-(2-pyridyl)-1-phenyl-1,2-dihydropyridin-2-one] is 1500 nM.

Consider `O=c1c(-c2nc3ccc(Cl)cc3[nH]2)cc(-c2ccccn2)cn1-c1ccccc1` [Example 355, 3-(6-Chloro-1H-benzimidazol-2-yl)-5-(2-pyridyl)-1-phenyl-1,2-dihydropyridin-2-one], for which the IC50 was determined as 200 nM. Next, `O=c1c(-c2nc3ccccc3n2-c2ccncc2)cc(-c2ccccn2)cn1-c1ccccc1` [Example 356, 3-[1-(Pyridin-4-yl)benzimidazol-2-yl]-5-(2-pyridyl)-1-phenyl-1,2-dihydropyridin-2-one]: 2100 nM.

`N#Cc1ccccc1-c1cc(-c2nc3cccc4c3n2CCC4)cn(-c2ccccc2)c1=O` [Example 358, 3-(2-Cyanophenyl)-5-(5,6-dihydro-4H-imidazo[4,5,1-i,j]quinolin-2-yl)-1-phenyl-1,2-dihydropyridin-2-one] gave an IC50 of 1400 nM. Next, `O=c1c(-c2nc3cccc4c3n2CCC4)cc(-c2ccccn2)cn1-c1ccccc1` [Example 359, 3-(5,6-Dihydro-4H-imidazo[4,5,1-i,j]quinolin-2-yl)-5-(2-pyridyl)-1-phenyl-1,2-dihydropyridin-2-one]: 2300 nM. Take `O=c1c(-c2nc3ccccc3n2-c2ccccc2)cc(-c2ccccn2)cn1-c1ccccc1` [Example 360, 3-(1-Phenylbenzimidazol-2-yl)-5-(2-pyridyl)-1-phenyl-1,2-dihydropyridin-2-one]: the IC50 was 3100 nM. For `N#Cc1ccccc1-c1cc(-c2nc3cnccc3[nH]2)cn(-c2ccccc2)c1=O` [Example 362, 3-(2-Cyanophenyl)-5-(1H-imidazo[4,5-c]pyridin-2-yl)-1-phenyl-1,2-dihydropyridin-2-one], inhibition was half-maximal at 3700 nM (IC50). The figure for `N#Cc1ccccc1-c1cc(-c2nc3ccccc3n2C2CCN(Cc3ccccc3)CC2)cn(-c2ccccc2)c1=O` [Example 365, 3-(2-Cyanophenyl)-5-[1-(1-benzylpiperidin-4-yl)benzimidazol-2-yl]-1-phenyl-1,2-dihydropyridin-2-one] is 2700 nM.

In turn, `O=c1c(-c2nc3cnccc3[nH]2)cc(-c2ccccn2)cn1-c1ccccc1` [Example 367, 3-(1H-Imidazo[4,5-c]pyridin-2-yl)-5-(2-pyridyl)-1-phenyl-1,2-dihydropyridin-2-one] showed an IC50 of 600 nM. The figure for `O=c1c(-c2nc3ccccc3s2)cc(-c2ccccn2)cn1-c1ccccc1` [Example 371, 3-(2-Benzothiazolyl)-5-(2-pyridyl)-1-phenyl-1,2-dihydropyridin-2-one] is 600 nM; for `N#Cc1ccccc1-c1cc(-c2ccccn2)cn(C2CCCN(Cc3ccccc3)C2)c1=O` (centres unmarked) [Example 379-B, 3-(2-Cyanophenyl)-5-(2-pyridyl)-1-(N-benzylpiperidin-3-yl)-1,2-dihydropyridin-2-one] it is 6400 nM.

As to `Cc1ccc(-n2cc(-c3ccccn3)cc(-c3ccccc3C#N)c2=O)cc1[N+](=O)[O-]` [Example 381, 3-(2-Cyanophenyl)-5-(2-pyridyl)-1-(2-nitrotoluen-4-yl)-1,2-dihydropyridin-2-one], the 50% inhibitory concentration (IC50) was found to be 400 nM. The figure for `O=c1c(S(=O)(=O)c2ccc(Cl)cc2)cc(-c2ccccn2)cn1-c1ccccc1` [Example 382-B, 3-(4-Chlorobenzenesulfonyl)-5-(2-pyridyl)-1-phenyl-1,2-dihydropyridin-2-one] is 2300 nM. As to `O=c1c(-c2ccccc2Cl)cc(Sc2ccc(Cl)cc2)cn1-c1cccnc1` [Example 385, 3-(2-Chlorophenyl)-5-(4-chlorophenylthio)-1-(3-pyridyl)-1,2-dihydropyridin-2-one], the IC50 came out at 1100 nM. Take `N#Cc1ccccc1-c1cc(-c2nc3ccccc3[nH]2)cn(-c2ccccc2)c1=O` [Example 386, 3-(2-Cyanophenyl)-5-(1H-benzimidazol-2-yl)-1-phenyl-1,2-dihydropyridin-2-one]: the IC50 was 3500 nM. Against the preceding molecule, the IC50 is about 3.2-fold higher. As for `O=c1c(C2C3CC4CC(C3)CC2C4)cc(-c2ccccn2)cn1-c1ccccc1` (centres unmarked) [Example 387, 3-(2-Adamantyl)-5-(2-pyridyl)-1-phenyl-1,2-dihydropyridin-2-one], the concentration for half-maximal inhibition (IC50) is 7000 nM. Next, `Cn1cccc2nc(-c3cc(-c4ccccc4C#N)c(=O)n(-c4ccccc4)c3)nc1-2` [Example 388, 3-(2-Cyanophenyl)-5-(4-methyl-imidazo[4.5-b]pyridin-2-yl)-1-phenyl-1,2-dihydropyridin-2-one]: 2900 nM.

`O=c1c(-c2nc(-c3ccccc3)no2)cc(-c2ccccn2)cn1-c1ccccc1` [Example 390, 3-(3-Phenyl-1,2,4-oxadiazol-5-yl)-1-phenyl-5-(2-pyridyl)-1,2-dihydropyridin-2-one] showed a 50% inhibitory concentration (IC50) of 1000 nM.

With `N#Cc1sccc1-c1cc(-c2ccccn2)cn(-c2ccccc2)c1=O` [Example 391, 3-(2-Cyanothiophen-3-yl)-5-(2-pyridyl)-1-phenyl-1,2-dihydropyridin-2-one], it took 100 nM to reach half-maximal inhibition (IC50).

In turn, `O=c1c(-c2ccccc2-c2cnco2)cc(-c2ccccn2)cn1-c1ccccc1` [Example 392, 3-[2-(5-oxazolyl)phenyl]-1-phenyl-5-(2-pyridyl)-1,2-dihydropyridin-2-one] gave an IC50 of 100 nM. This lies in the sub-micromolar range. Next, `O=c1c(-c2ccsc2-c2cnco2)cc(-c2ccccn2)cn1-c1ccccc1` [Example 393, 3-[2-(5-Oxazolyl)thiophen-3-yl]-1-phenyl-5-(2-pyridyl)-1,2-dihydropyridin-2-one]: 300 nM.

The record behind these values is patent US6949571B2, “1,2-dihydropyridine compounds, process for preparation of the same and use thereof” (Eisai Co., Ltd., priority 2000, dated 2005).
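Further: primary rat embryonic cortical neurons grown on an astrocyte layer in 96-well plates, used after at least 8 to 10 days in culture, Fura2-AM fluorescence ratio at 340/380 nm excitation.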
